Data reported in ChEMBL document CHEMBL4308853, “Design, Synthesis, and Pharmacological Evaluation of Novel β2/3 Subunit-Selective γ-Aminobutyric Acid Type A (GABAA) Receptor Modulators” (J Med Chem, 2018).
Activity calls are given as the source filed them.

How the values were obtained:
[1] = biological target: T1, GABA-A receptor; anion channel (Rattus norvegicus) (UniProt O09028+P15431+P18506+P18508+P19969+P20236+P23574+P23576+P28471+P28473+P30191+P62813+P63079+P63138+Q91ZM7+Q9ES14); assay: Positive allosteric modulation of GABA-A receptor in Sprague-Dawley rat primary hippocampal neurons assessed as miniature inhibitory postsynaptic current mean frequency at 10 uM for 300 secs at -70 mV holding potential by patch-clamp method; format: protein-complex assay; design: scale not given: the % may be the effect or the level left
Oocyte = assay: Induction of current in Xenopus laevis oocytes at 10 to 100 uM after 5 mins by two-microelectrode voltage clamp method; format: cell-based
[2] = biological target: T2, GABA A receptor alpha-1/beta-1/gamma-2 (Homo sapiens, UniProt P14867+P18505+P18507); assay: Positive allosteric modulation of GABA-A alpha1beta1gamma2S receptor (unknown origin) expressed in Xenopus laevis oocytes assessed as increase in GABA-induced chloride current at 300 uM after 15 mins at -70 mV holding potential by two-microelectrode voltage clamp method relative to control; format: cell-based; settings: 0.25 h
T2 sequence (P14867 whole entry): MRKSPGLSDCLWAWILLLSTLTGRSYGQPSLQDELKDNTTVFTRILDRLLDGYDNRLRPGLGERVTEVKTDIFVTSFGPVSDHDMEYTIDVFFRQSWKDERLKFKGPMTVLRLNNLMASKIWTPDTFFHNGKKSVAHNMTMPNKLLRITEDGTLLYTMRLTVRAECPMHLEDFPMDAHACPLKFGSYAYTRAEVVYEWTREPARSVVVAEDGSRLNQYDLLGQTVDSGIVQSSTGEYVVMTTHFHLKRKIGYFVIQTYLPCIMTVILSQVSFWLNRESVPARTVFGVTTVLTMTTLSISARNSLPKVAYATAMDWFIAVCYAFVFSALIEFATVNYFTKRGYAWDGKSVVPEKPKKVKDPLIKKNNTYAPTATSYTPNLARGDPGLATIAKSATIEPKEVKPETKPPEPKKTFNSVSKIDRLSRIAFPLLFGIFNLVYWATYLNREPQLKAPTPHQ
T2 sequence (P18507 whole entry): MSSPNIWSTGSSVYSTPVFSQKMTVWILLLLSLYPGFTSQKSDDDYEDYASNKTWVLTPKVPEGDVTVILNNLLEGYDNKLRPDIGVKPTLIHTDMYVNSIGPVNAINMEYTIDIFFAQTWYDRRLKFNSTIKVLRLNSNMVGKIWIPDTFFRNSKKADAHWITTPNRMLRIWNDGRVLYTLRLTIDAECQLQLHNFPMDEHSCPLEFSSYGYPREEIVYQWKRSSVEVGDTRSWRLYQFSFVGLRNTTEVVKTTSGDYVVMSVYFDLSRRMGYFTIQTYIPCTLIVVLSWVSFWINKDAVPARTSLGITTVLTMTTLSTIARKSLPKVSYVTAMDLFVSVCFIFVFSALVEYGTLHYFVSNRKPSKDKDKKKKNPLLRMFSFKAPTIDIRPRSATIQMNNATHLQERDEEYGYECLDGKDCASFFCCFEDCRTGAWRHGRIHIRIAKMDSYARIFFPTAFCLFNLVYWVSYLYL
T2 sequence (P18505 whole entry): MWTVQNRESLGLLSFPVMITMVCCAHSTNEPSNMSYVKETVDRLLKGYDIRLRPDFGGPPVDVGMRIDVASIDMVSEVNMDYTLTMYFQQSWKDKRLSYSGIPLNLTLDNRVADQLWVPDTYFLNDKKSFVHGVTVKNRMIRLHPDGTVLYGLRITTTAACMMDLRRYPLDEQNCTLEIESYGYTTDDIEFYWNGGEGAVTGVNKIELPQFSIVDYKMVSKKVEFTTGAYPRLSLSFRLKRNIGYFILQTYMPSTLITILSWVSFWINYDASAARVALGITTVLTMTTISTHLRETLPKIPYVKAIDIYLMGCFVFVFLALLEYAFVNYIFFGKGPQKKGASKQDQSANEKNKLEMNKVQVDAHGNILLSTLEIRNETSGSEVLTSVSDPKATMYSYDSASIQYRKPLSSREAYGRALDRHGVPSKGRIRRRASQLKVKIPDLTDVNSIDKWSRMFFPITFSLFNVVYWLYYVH

[3] = biological target: Glutamate [NMDA] receptor (Homo sapiens) (UniProt Q05586+Q12879+Q13224+O15399+O60391+Q14957+Q8TCU5); assay: Positive allosteric modulation of NMDA receptor (unknown origin) expressed in Xenopus laevis oocytes assessed as increase in NMDA-induced channel current at 10 to 100 uM at -70 mV holding potential by two-microelectrode voltage clamp method; format: cell-based
Mus musculus [4] = assay: Anticonvulsive activity in C57BL/6N mouse assessed as protection against 52.6 +/- 2.1 mg/kg pentylenetetrazole-induced seizures by measuring elevation in seizure threshold at 0.3 mg/kg, ip pretreated for 30 mins followed by pentylenetetrazole tail-vein infusion; format: functional, organism-based
[5] = biological target: T3, GABA-A receptor; alpha-1/beta-2/gamma-2 (Homo sapiens, UniProt P14867+P18507+P47870); assay: Positive allosteric modulation of GABA-A alpha1beta2gamma2S receptor (unknown origin) expressed in Xenopus laevis oocytes assessed as increase in GABA-induced chloride current after 15 mins at -70 mV holding potential by two-microelectrode voltage clamp method; format: cell-based
T3 sequence (P14867 whole entry): T2 sequence (P14867 whole entry)
T3 sequence (P47870 whole entry): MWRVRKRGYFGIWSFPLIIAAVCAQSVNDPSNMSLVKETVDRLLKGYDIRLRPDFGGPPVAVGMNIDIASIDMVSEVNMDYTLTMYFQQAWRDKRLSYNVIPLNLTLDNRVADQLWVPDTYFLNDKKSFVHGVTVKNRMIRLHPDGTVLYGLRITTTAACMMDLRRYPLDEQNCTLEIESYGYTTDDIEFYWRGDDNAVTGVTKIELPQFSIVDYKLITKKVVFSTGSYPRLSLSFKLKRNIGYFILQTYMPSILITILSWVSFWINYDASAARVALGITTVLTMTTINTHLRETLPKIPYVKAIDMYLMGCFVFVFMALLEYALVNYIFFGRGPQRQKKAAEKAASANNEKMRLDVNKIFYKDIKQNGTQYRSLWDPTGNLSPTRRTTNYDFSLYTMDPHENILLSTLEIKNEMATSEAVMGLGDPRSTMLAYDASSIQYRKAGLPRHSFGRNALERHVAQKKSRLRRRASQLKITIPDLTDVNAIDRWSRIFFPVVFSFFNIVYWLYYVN
T3 sequence (P18507 whole entry): T2 sequence (P18507 whole entry)

[6] = biological target: T1, GABA-A receptor; anion channel (Rattus norvegicus); assay: Positive allosteric modulation of GABA-A receptor in Sprague-Dawley rat primary hippocampal neurons assessed as increase in channel-mediated tonic current at 10 uM for 300 secs at -70 mV holding potential by patch-clamp method; format: protein-complex assay
[7] = biological target: T4, Neuronal acetylcholine receptor; alpha4/beta2 (Homo sapiens) (UniProt P17787+P43681); assay: Positive allosteric modulation of alpha4beta2 nAChR (unknown origin) expressed in Xenopus laevis oocytes assessed as increase in acetylcholine-induced channel current at 10 to 100 uM at -70 mV holding potential by two-microelectrode voltage clamp method; format: cell-based
[8] = biological target: T2, GABA A receptor alpha-1/beta-1/gamma-2; assay: Positive allosteric modulation of GABA-A alpha1beta1gamma2S receptor (unknown origin) expressed in Xenopus laevis oocytes assessed as increase in GABA-induced chloride current after 15 mins at -70 mV holding potential by two-microelectrode voltage clamp method; format: cell-based
[9] = biological target: Transient receptor potential cation channel subfamily V member 1 (Homo sapiens) (UniProt Q8NER1); assay: Agonist activity at TRPV1 receptor (unknown origin) expressed in Xenopus laevis oocytes assessed as increase in channel current at 10 to 100 uM at -70 mV holding potential by two-microelectrode voltage clamp method; format: cell-based
Chain of Transient receptor potential cation channel subfamily V member 1 (Homo sapiens) (Q8NER1 whole entry): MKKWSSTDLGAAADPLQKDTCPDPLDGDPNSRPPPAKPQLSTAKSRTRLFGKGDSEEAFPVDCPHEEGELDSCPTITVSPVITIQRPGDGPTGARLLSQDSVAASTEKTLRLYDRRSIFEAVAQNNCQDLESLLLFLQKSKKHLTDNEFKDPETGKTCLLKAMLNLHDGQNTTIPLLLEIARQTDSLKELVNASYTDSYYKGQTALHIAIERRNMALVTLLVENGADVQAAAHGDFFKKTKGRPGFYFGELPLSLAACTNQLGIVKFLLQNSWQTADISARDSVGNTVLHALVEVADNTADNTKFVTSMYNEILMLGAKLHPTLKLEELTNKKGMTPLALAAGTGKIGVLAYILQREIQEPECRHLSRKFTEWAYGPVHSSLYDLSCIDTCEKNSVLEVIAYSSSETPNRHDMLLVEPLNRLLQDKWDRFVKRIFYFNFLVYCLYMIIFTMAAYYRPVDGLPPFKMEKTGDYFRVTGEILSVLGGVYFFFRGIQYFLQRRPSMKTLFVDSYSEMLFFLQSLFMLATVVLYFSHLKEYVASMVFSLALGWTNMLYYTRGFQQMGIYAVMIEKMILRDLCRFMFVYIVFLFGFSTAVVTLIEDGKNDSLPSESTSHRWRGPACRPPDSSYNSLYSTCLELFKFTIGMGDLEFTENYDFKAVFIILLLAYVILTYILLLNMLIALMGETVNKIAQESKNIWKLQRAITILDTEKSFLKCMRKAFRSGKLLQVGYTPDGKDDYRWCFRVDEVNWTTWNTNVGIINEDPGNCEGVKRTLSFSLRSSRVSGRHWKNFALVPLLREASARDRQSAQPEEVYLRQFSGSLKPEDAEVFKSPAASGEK

[10] = biological target: T5, GABA-A receptor; alpha-1/beta-3/gamma-2 (Homo sapiens, UniProt P14867+P18507+P28472); assay: Positive allosteric modulation of GABA-A alpha1beta3gamma2S receptor (unknown origin) expressed in Xenopus laevis oocytes assessed as increase in GABA-induced chloride current after 15 mins at -70 mV holding potential by two-microelectrode voltage clamp method; format: cell-based
T5 sequence (P14867 whole entry): T2 sequence (P14867 whole entry)
T5 sequence (P18507 whole entry): T2 sequence (P18507 whole entry)
T5 sequence (P28472 whole entry): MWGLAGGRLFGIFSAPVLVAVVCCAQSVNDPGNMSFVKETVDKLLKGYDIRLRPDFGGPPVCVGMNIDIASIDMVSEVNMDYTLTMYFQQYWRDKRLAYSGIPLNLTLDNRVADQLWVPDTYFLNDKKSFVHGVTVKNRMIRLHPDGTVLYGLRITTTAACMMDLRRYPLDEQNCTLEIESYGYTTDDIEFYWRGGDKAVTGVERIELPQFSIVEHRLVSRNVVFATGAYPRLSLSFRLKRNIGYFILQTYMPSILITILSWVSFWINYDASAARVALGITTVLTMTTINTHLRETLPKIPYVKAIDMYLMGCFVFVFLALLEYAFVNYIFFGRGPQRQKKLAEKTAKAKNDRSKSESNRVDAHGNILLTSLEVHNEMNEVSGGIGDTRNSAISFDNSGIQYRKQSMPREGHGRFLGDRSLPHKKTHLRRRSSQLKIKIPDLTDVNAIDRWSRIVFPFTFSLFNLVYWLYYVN

[11] = biological target: T1, GABA-A receptor; anion channel (Rattus norvegicus); assay: Positive allosteric modulation of GABA-A receptor in Sprague-Dawley rat primary hippocampal neurons assessed as prolongation of miniature inhibitory postsynaptic current decay time at 10 uM for 300 secs at -70 mV holding potential by patch-clamp method; format: protein-complex assay; design: scale not given: the % may be the effect or the level left
[12] = biological target: Metabotropic glutamate receptor 2 (Homo sapiens) (UniProt Q14416); assay: Positive allosteric modulation of mGluR2 (unknown origin) expressed in Xenopus laevis oocytes assessed as increase in glutamate-induced channel current at 10 to 100 uM at -70 mV holding potential by two-microelectrode voltage clamp method; format: cell-based
Chain of Metabotropic glutamate receptor 2 (Homo sapiens) (Q14416 19-872 limits assumed): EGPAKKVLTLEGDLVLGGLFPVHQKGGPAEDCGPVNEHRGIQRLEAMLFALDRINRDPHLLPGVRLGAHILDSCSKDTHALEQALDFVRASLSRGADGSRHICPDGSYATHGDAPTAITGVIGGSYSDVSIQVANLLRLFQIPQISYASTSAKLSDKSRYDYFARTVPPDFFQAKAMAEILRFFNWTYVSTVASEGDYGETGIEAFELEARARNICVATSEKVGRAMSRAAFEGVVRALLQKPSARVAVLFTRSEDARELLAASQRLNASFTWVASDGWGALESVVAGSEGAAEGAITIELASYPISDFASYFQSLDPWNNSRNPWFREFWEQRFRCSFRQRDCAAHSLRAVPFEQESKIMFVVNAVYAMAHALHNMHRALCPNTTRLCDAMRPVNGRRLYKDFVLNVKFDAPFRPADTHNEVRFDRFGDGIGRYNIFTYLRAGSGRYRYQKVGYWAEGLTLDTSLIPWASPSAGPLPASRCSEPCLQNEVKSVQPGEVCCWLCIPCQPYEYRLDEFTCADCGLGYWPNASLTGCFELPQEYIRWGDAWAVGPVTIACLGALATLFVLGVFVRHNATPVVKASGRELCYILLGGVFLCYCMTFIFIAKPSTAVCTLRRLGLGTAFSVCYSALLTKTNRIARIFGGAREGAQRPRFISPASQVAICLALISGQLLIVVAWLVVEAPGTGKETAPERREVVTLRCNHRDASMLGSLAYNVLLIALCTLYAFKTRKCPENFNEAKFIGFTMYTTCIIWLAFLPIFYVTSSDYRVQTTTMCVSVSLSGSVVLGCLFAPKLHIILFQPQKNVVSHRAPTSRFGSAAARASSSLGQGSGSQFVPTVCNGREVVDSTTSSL

[13] = biological target: GABA-A receptor; alpha-1/beta-3/gamma-2 (Homo sapiens, UniProt P14867+P18507+P28472, F289S); assay: Positive allosteric modulation of GABA-A alpha1beta3(F289S)gamma2S mutant receptor (unknown origin) expressed in Xenopus laevis oocytes assessed as increase in GABA-induced chloride current after 15 mins at -70 mV holding potential by two-microelectrode voltage clamp method; format: cell-based
[14] = biological target: T4, Neuronal acetylcholine receptor; alpha4/beta2 (Homo sapiens); assay: Negative allosteric modulation of alpha4beta2 nAChR (unknown origin) expressed in Xenopus laevis oocytes assessed as decrease in acetylcholine-induced channel current at 100 uM at -70 mV holding potential by two-microelectrode voltage clamp method relative to control; format: cell-based
[15] = biological target: T1, GABA-A receptor; anion channel (Rattus norvegicus); assay: Positive allosteric modulation of GABA-A receptor in Sprague-Dawley rat primary hippocampal neurons assessed as miniature inhibitory postsynaptic current amplitude at 10 uM for 300 secs at -70 mV holding potential by patch-clamp method; format: protein-complex assay; design: scale not given: the % may be the effect or the level left
[16] = biological target: GABA A receptor alpha-1/beta-1/gamma-2 (Homo sapiens, UniProt P14867+P18505+P18507, S290N); assay: Positive allosteric modulation of GABA-A alpha1beta1(S290N)gamma2S mutant receptor (unknown origin) expressed in Xenopus laevis oocytes assessed as increase in GABA-induced chloride current after 15 mins at -70 mV holding potential by two-microelectrode voltage clamp method; format: cell-based
[17] = biological target: T1, GABA-A receptor; anion channel (Rattus norvegicus); assay: Positive allosteric modulation of GABA-A receptor in Sprague-Dawley rat primary hippocampal neurons assessed as channel-mediated tonic current at 10 uM pretreated for 300 secs followed by BMI addition for 10 secs at -70 mV holding potential by patch-clamp method; format: protein-complex assay
[18] = biological target: GABA-A receptor; alpha-1/beta-3/gamma-2 (Homo sapiens, UniProt P14867+P18507+P28472, N265S); assay: Positive allosteric modulation of GABA-A alpha1beta3(N265S)gamma2S mutant receptor (unknown origin) expressed in Xenopus laevis oocytes assessed as increase in GABA-induced chloride current after 15 mins at -70 mV holding potential by two-microelectrode voltage clamp method; format: cell-based
Mus musculus [19] = assay: Anticonvulsive activity in C57BL/6N mouse assessed as protection against 39.5 +/- 0.8 mg/kg pentylenetetrazole-induced seizures by measuring elevation in seizure threshold at 0.1 to 0.3 mg/kg, ip pretreated for 30 mins followed by pentylenetetrazole tail-vein infusion; format: functional, organism-based

C/C(=C/C#N)c1ccc(Cl)cc1Cl
Activity [1]: 78%
Activity (Oocyte): Non-Toxic
Emax at 300 µM [2]: 883%
Activity [3]: inactive
Activity (Mus musculus [4]): Active
EC50 [5]: 15 µM
Activity [6]: Active
Activity [7]: inactive
EC50 [8]: 148 µM
Activity [9]: inactive
EC50 [10]: 13 µM
Activity [11]: 213%
Activity [12]: inactive
EC50 [13]: 171 µM
inhibition [14]: 70%
Activity [15]: 97%
EC50 [16]: 10 µM
Activity [17]: -38 pA
EC50 [18]: 103 µM
Activity (Mus musculus [19]): Active

C/C(=C(/C#N)C(N)=O)c1ccc(Cl)cc1Cl
EC50 [5]: 64 µM
EC50 [10]: 55 µM

C/C(C#N)=C\c1ccc(Cl)cc1Cl
EC50 [10]: 91 µM

Cl/C(=C\n1cncn1)c1ccc(Cl)cc1Cl [LORECLEZOLE]
EC50 [10]: 11 µM

CC(CC#N)c1ccc(Cl)cc1Cl (racemic)
EC50 [10]: 120 µM
